Consider seven compounds from US5316944A, “Enzymatic resolution of a racemic mixture of gamma-amino acids using penicillin acylase” (Merrell Dow Pharmaceuticals, priority 1992, dated 1994).

Some results are limits rather than exact numbers.

One assay deals with penicillin acylase (Escherichia coli, UniProt P06875). As to the kind of experiment: penicillin acylase-catalyzed hydrolysis of N-phenylacetyl derivatives. The class given is biochemical, E.coli. The following applies: for E: E values calculated from the yields and the ee's of the (R)-enantiomers; for Reaction rate: [S] = 50 mm, pH 7.8, 25° C. The source says:
Here we report a simple procedure for the preparation of the enantiomers of γ-ethynyl GABA, γ-allenyl GABA, and γ-vinyl GABA by penicillin acylase-catalyzed hydrolysis of the corresponding N-phenylacetyl derivatives. Penicillin acylase (PA) from E.coli is used in industry for the preparation of 6-aminopenicillanic acid and semisynthetic β-lactam antibiotics (V. K. Svedas et al., Enzyme Microb. Technol., 2, 138 (1980)). PA is highly specific to phenylacetyl group and catalyzes its cleavage not only from penicillins, but also from amides, peptides, and esters (M. Cole, Biochem J., 115, 733 (1969); Ibid, 741; and, A. Czentirmai, Acta Microbiol. Acad. Sci. Hung., 12, 395 (1965/1966). The structure of the leaving group of the substrates hardly affects the rate constants of the hydrolytic reactions (M. Cole, Nature, 203, 519 (1964), and A. L. Margolin et al., Biochim. Biophys. Acta, 616, 283 (1980)). The enantioselectivity of PA was exploited in the preparation of amino acids (D. Rossi et al., Experientia, 33, 1557 (1977) and Ibid, 41, 35 (1985)), aminoalkylphosphonic acids (V. A. Solodenko et al., Tetrahedron, 47, 3989 (1991)), esters and alcohols (C. Fuganti et al., Tetrahedron Letters, 44, 2575 (1988), and H. Waldman, 30, 3057 (1989)), although the hydrolysis of an ester bond normally results in products with modest optical purity.
In a typical experiment, 0.7 g of penicillin acylase immobilized on Eupergit C, was suspended in a solution of (N-phenylacetyl)-vinyl GABA (1.0 g; 4 mmol) in 35 ml 0.1 M phosphate buffer, pH 7.8. The mixture was stirred at room temperature (r.t.) for 5 hours. Then the solution was adjusted to pH 2 and the remaining substrate was extracted with CH2 Cl2 to give (S)-(N-phenylacetyl)-vinyl GABA (organic layer) and (R)-γ-vinyl GABA (aqueous). Since the chemical deacylation of (S)-(N-phenylacetyl)-vinyl GABA under acid conditions results in the formation of byproducts the same enzyme was used for the deacylation of (S)-(N-phenylacetyl)-vinyl GABA. To achieve an effective hydrolysis, a larger amount of Eupergit-PA (1.5 g), higher reaction temperature (45° C.), and longer reaction time (2 days) were used. When the reaction was complete (HPLC) the Eupergit-PA was filtered off and phenylacetic acid was extracted with CH2 Cl2 from acidic solution (pH 2). The aqueous solution of both (R)- and (S)-γ-vinyl GABA were subjected to ion-exchange chromatography (Dowex 1×2- 100 (OH-)) followed by lyophilization. The enamtiomers of γ-ethynyl GABA and γ-allenyl GABA were prepared by the same procedure (Table 1).
^b [S] = 50 mm; pH 7.8:25° C.
^f The E values were calculated from the yields and the ee's of the
(R)enantiomers (C. S. Chen, et al., J. Am. Chem. Soc., 104, 7294 (1982)).

Assay [1] deals with experimentally-induced seizures. The following applies: compared with (S)-counterpart or racemic compound; cited from earlier work.
For another assay, the system named is GABA-T. The following applies: known to elevate brain levels of GABA; cited from earlier work.
The conditions of assay [2]: which enantiomer is active; cited from earlier work.

Sequence of penicillin acylase (P06875 290-846): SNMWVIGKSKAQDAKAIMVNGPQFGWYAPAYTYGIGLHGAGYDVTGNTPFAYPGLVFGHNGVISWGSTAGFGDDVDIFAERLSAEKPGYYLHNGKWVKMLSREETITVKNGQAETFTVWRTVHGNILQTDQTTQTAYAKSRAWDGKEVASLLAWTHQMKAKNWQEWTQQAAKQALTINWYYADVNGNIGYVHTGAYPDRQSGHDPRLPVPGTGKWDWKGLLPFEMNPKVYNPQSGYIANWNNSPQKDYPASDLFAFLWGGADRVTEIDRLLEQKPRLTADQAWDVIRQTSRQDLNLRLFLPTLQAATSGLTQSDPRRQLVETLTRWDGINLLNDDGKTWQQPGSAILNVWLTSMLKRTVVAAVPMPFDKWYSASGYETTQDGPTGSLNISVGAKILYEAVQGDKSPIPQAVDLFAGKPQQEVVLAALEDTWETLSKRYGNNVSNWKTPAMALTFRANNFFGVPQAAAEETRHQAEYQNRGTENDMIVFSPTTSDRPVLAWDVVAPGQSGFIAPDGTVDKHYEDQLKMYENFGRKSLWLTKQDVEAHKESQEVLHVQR
Sequence of penicillin acylase (P06875 27-235): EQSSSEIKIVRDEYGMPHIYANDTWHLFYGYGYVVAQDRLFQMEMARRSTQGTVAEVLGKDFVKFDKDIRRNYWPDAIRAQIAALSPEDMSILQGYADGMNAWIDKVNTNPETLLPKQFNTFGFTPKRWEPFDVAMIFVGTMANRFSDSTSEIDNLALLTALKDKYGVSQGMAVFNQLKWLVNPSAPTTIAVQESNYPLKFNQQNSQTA

As for `C=C=CC(CCC(=O)O)NC(=O)Cc1ccccc1` (racemic) [Allenyl], on penicillin acylase, the E is 20 and the Reaction rate was 46%. The corresponding values for `C#CC(CCC(=O)O)NC(=O)Cc1ccccc1` (racemic) [Ethynyl] are over 100 and 100%.

Regarding `C=CC(CCC(=O)O)NC(=O)Cc1ccccc1` (racemic) [Vinyl, (N-phenylacetyl)-vinyl GABA], at penicillin acylase, the E was 17 and the Reaction rate is listed as 39%. In the case of `C#C[C@H](N)CCC(=O)O` [(R)-γ-ethynyl GABA], the “activity as an anticonvulsant agent” value in assay [1] is listed as “more active”. As for `C=C=CC(N)CCC(=O)O` (stereo not drawn) [γ-allenyl GABA, 4-amino-hepta-5,6-dienoic acid], the “inhibition of GABA-T” value with GABA-T is reported as “irreversible inhibitors”. The biological activity entry in assay [2] is on record as “resides in the (S)-enantiomers”.

Regarding `C#CC(N)CCC(=O)O` (stereo not drawn) [γ-ethynyl GABA, 4-aminohex-5-ynoic acid], the “inhibition of GABA-T” value in the assay on GABA-T was “irreversible inhibitors”. Consider `C=CC(N)CCC(=O)O` (stereo not drawn) [γ-vinyl GABA, 4-aminohex-5-enoic acid], for which, in the assay with GABA-T, the “inhibition of GABA-T” value was “irreversible inhibitors”. In addition, the biological activity entry in assay [2] is “resides in the (S)-enantiomers”.
